A word on the mass density: it is the mass of a sample divided by its volume.

For this series the following is noted: 293 K, 101.33 kPa, Pycnometric method.

± gives the expanded uncertainty stated by the source.

In the case of `O=C1OCCO1` [ethylene carbonate], the mass density (Crystal) was found to be 1320 ± 10 kg/m3.
As for `CCC1COC(=O)O1` (configuration not stated) [1,2-butylene carbonate], the mass density (Liquid) is 1140 ± 10 kg/m3.

The values are drawn from the NIST ThermoML archive (doi:10.1016/j.jct.2008.05.001).
